Source: PubChem BioAssay (NCI)
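Growth conditions: 96-well plates. Treatment: test compound, 48 hours, 5 concentrations. Analysis: linear interpolation between bracketing concentrations; unreached endpoints set to highest concentration. TGI: concentration producing complete growth inhibition.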

Key:
Assay in all cases: DTP human tumour cell line panel, 48 h
[1] = system: MOLT-4 leukemia
[2] = system: OVCAR-3 ovarian
[3] = system: OVCAR-8 ovarian
[4] = system: BT-549 breast
[5] = system: UACC-257 melanoma
[6] = system: T-47D breast
[7] = system: U251 CNS
[8] = system: LOX IMVI melanoma
[9] = system: HL-60(TB) leukemia
[10] = system: SNB-75 CNS
[11] = system: MDA-MB-231 breast
[12] = system: SK-MEL-5 melanoma
[13] = system: SF-295 CNS
[14] = system: HCT-116 colon
[15] = system: SR leukemia
[16] = system: MDA-MB-435
[17] = system: SNB-19 CNS
[18] = system: 786-0 renal
[19] = system: SK-MEL-28 melanoma
[20] = system: MCF7 breast
[21] = system: MALME-3M melanoma
[22] = system: K-562 leukemia
[23] = system: TK-10 renal
[24] = system: SF-268 CNS
[25] = system: ACHN renal
[26] = system: NCI/ADR-RES ovarian
[27] = system: NCI-H460 lung
[28] = system: EKVX NSCLC
[29] = system: A549 NSCLC
[30] = system: HT29 colon
[31] = system: MDA-N
[32] = system: HOP-62 NSCLC
[33] = system: CAKI-1 renal
[34] = system: UO-31 renal
[35] = system: IGROV1 ovarian
[36] = system: NCI-H226 lung
[37] = system: HCT-15 colon
[38] = system: OVCAR-4 ovarian
[39] = system: HS 578T breast
[40] = system: SK-OV-3 ovarian
[41] = system: OVCAR-5 ovarian
[42] = system: NCI-H23 lung
[43] = system: DU-145 prostate
[44] = system: CCRF-CEM leukemia
[45] = system: RXF 393 renal
[46] = system: NCI-H522 lung
[47] = system: KM12 colon
[48] = system: M14 melanoma
[49] = system: SN12C renal
[50] = system: UACC-62 melanoma
[51] = system: PC-3 prostate
[52] = system: COLO 205 colon
[53] = system: SK-MEL-2 melanoma
[54] = system: SW-620 colon
[55] = system: HCC-2998 colon
[56] = system: SF-539 CNS
[57] = system: RPMI-8226 leukemia
[58] = system: A498 renal
[59] = system: HOP-92 NSCLC

## O=c1[nH]c(=O)n(C2CC(O)C(CO)O2)cc1NN=NCc1ccccc1 (configuration not stated)
[1]
  TGI: > 100 µM
[2]
  TGI: > 100 µM
[3]
  TGI: > 100 µM
[4]
  TGI: > 100 µM
[5]
  TGI: > 100 µM
[6]
  TGI: > 100 µM
[7]
  TGI: > 100 µM
[8]
  TGI: > 100 µM
[9]
  TGI: > 100 µM
[10]
  TGI: > 100 µM
[11]
  TGI: > 100 µM
[12]
  TGI: > 100 µM
[13]
  TGI: > 100 µM
[14]
  TGI: > 100 µM
[15]
  TGI: > 100 µM
[16]
  TGI: > 100 µM
[17]
  TGI: > 100 µM
[18]
  TGI: > 100 µM
[19]
  TGI: > 100 µM
[20]
  TGI: > 100 µM
[21]
  TGI: > 100 µM
[22]
  TGI: > 100 µM
[23]
  TGI: > 100 µM
[24]
  TGI: > 100 µM
[25]
  TGI: > 100 µM
[26]
  TGI: > 100 µM
[27]
  TGI: > 100 µM
[28]
  TGI: > 100 µM
[29]
  TGI: > 100 µM
[30]
  TGI: > 100 µM
[31]
  TGI: > 100 µM
[32]
  TGI: > 100 µM
[33]
  TGI: > 100 µM
[34]
  TGI: > 100 µM
[35]
  TGI: > 100 µM
[36]
  TGI: > 100 µM
[37]
  TGI: > 100 µM
[38]
  TGI: > 100 µM
[39]
  TGI: > 100 µM
[40]
  TGI: > 100 µM
[41]
  TGI: > 100 µM
[42]
  TGI: > 100 µM
[43]
  TGI: > 100 µM
[44]
  TGI: > 100 µM
[45]
  TGI: > 100 µM
[46]
  TGI: > 100 µM
[47]
  TGI: > 100 µM
[48]
  TGI: > 100 µM
[49]
  TGI: > 100 µM
[50]
  TGI: > 100 µM
[51]
  TGI: > 100 µM

## O=C1CCC2=C(CCC2)N1CCc1ccc2c(c1)OCO2
[1]
  TGI: > 100 µM
[52]
  TGI: > 100 µM
[4]
  TGI: 85.4 µM
[5]
  TGI: > 100 µM
[6]
  TGI: > 100 µM
[7]
  TGI: > 100 µM
[8]
  TGI: > 100 µM
[9]
  TGI: 55.7 µM
[10]
  TGI: > 100 µM
[11]
  TGI: > 100 µM
[12]
  TGI: > 100 µM
[13]
  TGI: > 100 µM
[14]
  TGI: > 100 µM
[15]
  TGI: > 100 µM
[53]
  TGI: > 100 µM
[54]
  TGI: > 100 µM
[17]
  TGI: > 100 µM
[18]
  TGI: > 100 µM
[19]
  TGI: > 100 µM
[20]
  TGI: > 100 µM
[21]
  TGI: > 100 µM
[55]
  TGI: > 100 µM
[22]
  TGI: > 100 µM
[23]
  TGI: > 100 µM
[24]
  TGI: > 100 µM
[25]
  TGI: > 100 µM
[26]
  TGI: > 100 µM
[27]
  TGI: > 100 µM
[56]
  TGI: > 100 µM
[28]
  TGI: > 100 µM
[29]
  TGI: > 100 µM
[30]
  TGI: > 100 µM
[31]
  TGI: > 100 µM
[32]
  TGI: > 100 µM
[33]
  TGI: > 100 µM
[34]
  TGI: > 100 µM
[35]
  TGI: > 100 µM
[36]
  TGI: > 100 µM
[37]
  TGI: > 100 µM
[38]
  TGI: > 100 µM
[39]
  TGI: > 100 µM
[40]
  TGI: > 100 µM
[41]
  TGI: > 100 µM
[42]
  TGI: > 100 µM
[43]
  TGI: > 100 µM
[57]
  TGI: 45.1 µM
[44]
  TGI: > 100 µM
[45]
  TGI: 52.5 µM
[46]
  TGI: > 100 µM
[47]
  TGI: > 100 µM
[48]
  TGI: > 100 µM
[49]
  TGI: > 100 µM
[50]
  TGI: > 100 µM
[51]
  TGI: > 100 µM

## CC1OC(OC2C(OC3C[C@@]4(C)C(C[C@H](O)[C@H]5[C@H](C6(C)CCC(C(C)(C)O)O6)CCC54C)[C@]4(C)CC[C@@H](O)C(C)(C)C34)OC(CO)C(O)C2O)C(O)C(O)C1O (some centres not stated) (tested in a mixture with another compound)
[58]
  TGI: > 100 µM
[1]
  TGI: > 100 µM
[2]
  TGI: > 100 µM
[52]
  TGI: > 100 µM
[3]
  TGI: > 100 µM
[4]
  TGI: > 100 µM
[5]
  TGI: > 100 µM
[6]
  TGI: > 100 µM
[7]
  TGI: > 100 µM
[59]
  TGI: > 100 µM
[8]
  TGI: > 100 µM
[9]
  TGI: > 100 µM
[10]
  TGI: > 100 µM
[11]
  TGI: > 100 µM
[12]
  TGI: > 100 µM
[13]
  TGI: > 100 µM
[14]
  TGI: > 100 µM
[15]
  TGI: > 100 µM
[53]
  TGI: > 100 µM
[16]
  TGI: > 100 µM
[54]
  TGI: > 100 µM
[17]
  TGI: > 100 µM
[18]
  TGI: > 100 µM
[19]
  TGI: > 100 µM
[20]
  TGI: > 100 µM
[55]
  TGI: > 100 µM
[22]
  TGI: > 100 µM
[23]
  TGI: > 100 µM
[24]
  TGI: > 100 µM
[25]
  TGI: > 100 µM
[27]
  TGI: > 100 µM
[56]
  TGI: > 100 µM
[28]
  TGI: > 100 µM
[29]
  TGI: > 100 µM
[30]
  TGI: > 100 µM
[31]
  TGI: > 100 µM
[32]
  TGI: > 100 µM
[33]
  TGI: > 100 µM
[34]
  TGI: > 100 µM
[35]
  TGI: > 100 µM
[36]
  TGI: > 100 µM
[37]
  TGI: > 100 µM
[38]
  TGI: > 100 µM
[39]
  TGI: > 100 µM
[40]
  TGI: > 100 µM
[41]
  TGI: > 100 µM
[42]
  TGI: > 100 µM
[43]
  TGI: > 100 µM
[57]
  TGI: > 100 µM
[44]
  TGI: > 100 µM
[45]
  TGI: > 100 µM
[46]
  TGI: > 100 µM
[47]
  TGI: > 100 µM
[48]
  TGI: > 100 µM
[49]
  TGI: > 100 µM
[50]
  TGI: > 100 µM
[51]
  TGI: > 100 µM

## Cc1nc2ccccc2c(=O)n1NC(=O)Cc1ccccc1
[58]
  TGI: > 100 µM
[1]
  TGI: > 100 µM
[2]
  TGI: > 100 µM
[52]
  TGI: > 100 µM
[3]
  TGI: > 100 µM
[4]
  TGI: > 100 µM
[5]
  TGI: > 100 µM
[6]
  TGI: > 100 µM
[7]
  TGI: > 100 µM
[59]
  TGI: > 100 µM
[8]
  TGI: > 100 µM
[9]
  TGI: > 100 µM
[10]
  TGI: > 100 µM
[11]
  TGI: > 100 µM
[12]
  TGI: > 100 µM
[13]
  TGI: > 100 µM
[14]
  TGI: > 100 µM
[15]
  TGI: > 100 µM
[16]
  TGI: > 100 µM
[54]
  TGI: > 100 µM
[17]
  TGI: > 100 µM
[18]
  TGI: > 100 µM
[19]
  TGI: > 100 µM
[20]
  TGI: > 100 µM
[21]
  TGI: > 100 µM
[55]
  TGI: > 100 µM
[22]
  TGI: > 100 µM
[23]
  TGI: > 100 µM
[24]
  TGI: > 100 µM
[25]
  TGI: > 100 µM
[27]
  TGI: > 100 µM
[56]
  TGI: > 100 µM
[28]
  TGI: > 100 µM
[29]
  TGI: > 100 µM
[30]
  TGI: > 100 µM
[31]
  TGI: > 100 µM
[32]
  TGI: > 100 µM
[34]
  TGI: > 100 µM
[35]
  TGI: > 100 µM
[36]
  TGI: > 100 µM
[38]
  TGI: > 100 µM
[39]
  TGI: > 100 µM
[40]
  TGI: > 100 µM
[41]
  TGI: > 100 µM
[42]
  TGI: > 100 µM
[43]
  TGI: > 100 µM
[57]
  TGI: > 100 µM
[44]
  TGI: > 100 µM
[45]
  TGI: > 100 µM
[46]
  TGI: > 100 µM
[47]
  TGI: > 100 µM
[48]
  TGI: > 100 µM
[49]
  TGI: > 100 µM
[50]
  TGI: > 100 µM
[51]
  TGI: > 100 µM
